35 compounds from ChEMBL document CHEMBL1124855, “Synthesis and muscarinic activities of 1,2,4-thiadiazoles” (J Med Chem, 1990) can be followed below.

In test [1] the target is T1, Muscarinic acetylcholine receptor (Rattus norvegicus) (UniProt P08482+P08483+P08485+P08911+P10980).
Description: Ability to displace radioligand [3H]N-methylscopolamine (NMS) at muscarinic acetylcholine receptor from rat cortical homogenate.
The target of test [2] is T1, Muscarinic acetylcholine receptor (Rattus norvegicus). The source holds these as a separate data set.
Description: Affinity to displace radioligand [3H]oxotremorine (OXO) at muscarinic acetylcholine receptor from rat cortical homogenate.
The target is the same in test [3]. The test can be described thus: Ability to displace radioligand [3H]N-methylscopolamine (NMS) at Muscarinic acetylcholine receptor from rat cortical homogenate.
The subject of test [4] is Muscarinic acetylcholine receptor (Rattus norvegicus). Description: Ratio of [3H]N-methylscopolamine (NMS) to [3H]oxotremorine (OXO) at Muscarinic acetylcholine receptor from rat cortical homogenate.

In the case of `CN1CCC=C(c2ncns2)C1`, the results for the K app in test [1] and in test [2] were 11 µM and 0.027 µM, respectively.
In the case of `c1nsc([C@@H]2CN3CCC2C3)n1` (stereo not given in full), the K app stood at 6.4 µM in test [3] and 0.0056 µM in test [2].
For `Cc1nsc(C2=CCCN(C)C2)n1`, the K app in test [1] is 1.4 µM; in test [2], 0.0089 µM.
For `Cc1nsc([C@@H]2CN3CCC2C3)n1` (stereo not given in full), in that order: 0.62 µM and 0.00062 µM.
For `c1ccc(Cc2nsc([C@H]3CN4CCC3C4)n2)cc1` (stereo not given in full), in that order: 0.54 µM and 0.061 µM.
Turning to `CCc1nsc(C2CN3CCC2CC3)n1` (stereo not given), the K app came out at 0.082 µM in test [1] and 0.009 µM in test [2].
The matching figures for `CC(C)c1nsc(C2CN3CCC2CC3)n1` (stereo not given): 0.033 µM and 0.0031 µM.
For `CCc1nsc([C@H]2CN3CCC2C3)n1` (stereo not given in full), in that order: 0.51 µM and 0.033 µM.
For `CSc1nsc(C2CN3CCC2CC3)n1` (stereo not given), in that order: 0.12 µM and 0.012 µM.
Consider `c1nsc([C@H]2CN3CCC2C3)n1` (stereo not given in full), for which the values for the K app in test [1] and in test [2] were 1.4 µM and 0.0013 µM, respectively.
For `c1nsc(C2CN3CCC2CC3)n1` (stereo not given), in that order: 3.3 µM and 0.0077 µM.
`Cc1nsc(C2CCN(C)C2)n1` (stereo not given): the K app in test [1] is 36 µM; in test [2] it was 0.15 µM.
For `CC(C)c1nsc([C@@H]2CN3CCC2C3)n1` (stereo not given in full), in that order: 0.29 µM and 0.041 µM.
Take `CN(C)c1nsc([C@H]2CN3CCC2C3)n1` (stereo not given in full): the K app is 0.99 µM in test [1] and 0.098 µM in test [2].
For `Cc1nsc(C2=CCCNC2)n1`, in that order: 0.95 µM and 0.0021 µM.
For `OC(c1ccccc1)(c1ccccc1)c1nsc(C2CN3CCC2CC3)n1` (stereo not given), the figures for the K app in test [1] and in test [2] were 0.0002 µM and 6.8e-05 µM, respectively.
The matching figures for `C1CC1c1nsc([C@@H]2CN3CCC2C3)n1` (stereo not given in full): 0.21 µM and 0.004 µM.
The matching figures for `CC(C)c1nsc([C@H]2CN3CCC2C3)n1` (stereo not given in full): 0.4 µM and 0.055 µM.
For the compound `Cc1nsc(C2CN3CCC2CC3)n1` (stereo not given), the K app in test [1] came to 0.36 µM; in test [2], 0.00078 µM.
For `CN(C)c1nsc(C2CN3CCC2CC3)n1` (stereo not given), in that order: 0.14 µM and 0.023 µM.
For `COc1nsc(C2CN3CCC2CC3)n1` (stereo not given), in that order: 0.9 µM and 0.033 µM.
For `COC(=O)C1=CCCNC1`, in that order: 20 µM and 0.017 µM.
As to `CN(C)c1nsc([C@@H]2CN3CCC2C3)n1` (stereo not given in full), the K app in test [1] was 0.84 µM; in test [2], 0.062 µM.
For `C1CC1c1nsc(C2CN3CCC2CC3)n1` (stereo not given), in that order: 0.023 µM and 0.0028 µM.
For `Cc1nsc([C@H]2CN3CCC2C3)n1` (stereo not given in full), in that order: 0.37 µM and 0.00045 µM.
Turning to `C1CC1c1nsc([C@H]2CN3CCC2C3)n1` (stereo not given in full), the K app in test [1] stood at 0.16 µM; in test [2], 0.019 µM.
The matching figures for `COc1nsc([C@@H]2CN3CCC2C3)n1` (stereo not given in full): 2 µM and 0.006 µM.
Consider `c1ccc(Cc2nsc([C@@H]3CN4CCC3C4)n2)cc1` (stereo not given in full), for which the K app in test [1] amounted to 0.34 µM; in test [2], 0.074 µM.
For `CCc1nsc([C@@H]2CN3CCC2C3)n1` (stereo not given in full), in that order: 0.29 µM and 0.005 µM.
For `c1ccc(Cc2nsc(C3CN4CCC3CC4)n2)cc1` (stereo not given), the figures for the K app in test [1] and in test [2] were 0.082 µM and 0.014 µM, respectively.
Take `Cc1noc(C2=CCCN(C)C2)n1`: in test [4], the Ratio is 390.
Consider `C1=C(c2ncns2)CNCC1`, for which the results for the K app in test [1] and in test [2] were 11 µM and 0.014 µM, respectively.
The matching figures for `COc1nsc([C@H]2CN3CCC2C3)n1` (stereo not given in full): 1.8 µM and 0.017 µM.
As to `Cc1nsc(C2CCNC2)n1` (stereo not given), the figures for the K app in test [1] and in test [2] were 18 µM and 0.054 µM, respectively.
In the case of `CN1CCC=C(c2ncno2)C1`, the K app in test [1] came out at 8.9 µM; in test [2], 0.0077 µM. In test [4], the Ratio came out at 1200.
